Test results from patent US20260184708A1, “PYRIDAZINONES AND METHODS OF USE THEREOF” (GFB (ABC), LLC, priority 2017, published 2026).

Assays:
TRPC5 [1] = target: T1, TRPC5 (Homo sapiens, UniProt Q9UL62); experiment: TRPC5 automated patch clamp assay (Qpatch), current block after rosiglitazone stimulation; format: cell-based; settings: Table 6; HEK293 cells overexpressing TRPC5; read-out: TRPC5-QPatch IC50
T1 construct: expressed in transfected cells; host or cells: HEK 293
T1 sequence (Q9UL62 1-973): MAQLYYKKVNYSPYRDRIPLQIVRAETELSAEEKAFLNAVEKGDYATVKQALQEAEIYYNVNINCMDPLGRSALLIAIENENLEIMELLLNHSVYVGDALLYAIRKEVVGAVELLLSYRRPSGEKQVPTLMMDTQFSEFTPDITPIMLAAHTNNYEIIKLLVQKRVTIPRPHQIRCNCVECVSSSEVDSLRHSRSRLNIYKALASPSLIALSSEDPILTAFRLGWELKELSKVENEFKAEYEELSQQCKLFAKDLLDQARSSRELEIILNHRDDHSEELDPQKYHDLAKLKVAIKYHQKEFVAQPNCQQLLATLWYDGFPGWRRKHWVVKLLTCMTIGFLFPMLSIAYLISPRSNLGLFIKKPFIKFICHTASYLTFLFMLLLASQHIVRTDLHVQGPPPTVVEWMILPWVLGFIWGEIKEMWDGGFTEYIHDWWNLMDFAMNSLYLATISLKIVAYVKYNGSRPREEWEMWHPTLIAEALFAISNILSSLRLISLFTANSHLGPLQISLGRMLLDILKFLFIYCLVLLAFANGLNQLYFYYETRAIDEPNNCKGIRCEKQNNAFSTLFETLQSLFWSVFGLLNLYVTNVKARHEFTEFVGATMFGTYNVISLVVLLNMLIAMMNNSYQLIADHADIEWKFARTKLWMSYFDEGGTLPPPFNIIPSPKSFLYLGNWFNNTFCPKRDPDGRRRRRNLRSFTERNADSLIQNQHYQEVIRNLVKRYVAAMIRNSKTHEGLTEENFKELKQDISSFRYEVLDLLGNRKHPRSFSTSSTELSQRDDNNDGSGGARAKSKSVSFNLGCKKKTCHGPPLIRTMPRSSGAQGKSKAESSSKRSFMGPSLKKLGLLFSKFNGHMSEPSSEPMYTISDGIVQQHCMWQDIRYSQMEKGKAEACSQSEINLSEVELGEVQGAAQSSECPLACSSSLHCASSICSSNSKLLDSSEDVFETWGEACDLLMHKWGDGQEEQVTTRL
In short: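 HEK 293 cells expressing human TRPC5, whole-cell QPatch recording; 1 μM buffered free internal Ca2+, external pH 7.4. Ramps −100 to +100 mV over 300 ms every 10 s from −60 mV holding; channel activated by Rosiglitazone (30 uM) after ≥60 s control. IC50 from Hill fit.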

TRPC5 [2] = target: T1, TRPC5; experiment: TRPC5 fluorescence assay, membrane potential dye, flexstation (FLEX); format: cell-based; settings: Table 6; HEK293 cells overexpressing TRPC5
Method: HEK 293 cells expressing human TRPC5 cells were trypsinised, counted and seeded in black, clear-bottomed 96-well plates at a density of 50,000 cells per well and incubated overnight. Next day, the cells were loaded with membrane potential dye. Dye solution was made up according to the manufacturer's instructions in HEPES buffered Hank's balanced salt solution (HBSS). Dye solution (10 μL) was added to the wells and incubated at 37° C. for 1 hour. The test compounds and standard inhibitors were added to the wells and incubated at room temperature for 10 minutes. The plates were then placed in the flexstation and fluorescence monitored every 1.52 seconds. After 20 seconds, 10 μL of the appropriate standard agonist was added and the fluorescence monitored for 2 minutes at ex/emm: 530 nm/565 nm.

Row | SMILES | IC50 (TRPC5 [1]) | IC50 (TRPC5 [2])
1 | Cc1ccccc1-n1cnc2c1CCN(c1cn[nH]c(=O)c1Cl)C2 | 1000 to 5000 nM | 10000 to 500000 nM
2 | O=c1[nH]ncc(N2CCc3c(ncn3Cc3ccccc3C(F)(F)F)C2)c1Br [drawing 862] | 0.01 to 1000 nM | 0.01 to 1000 nM
3 | CCc1ncccc1Cn1nnc2c1CCN(c1cn[nH]c(=O)c1Cl)C2 | 1000 to 5000 nM | 0.01 to 1000 nM
4 | O=c1[nH]ncc(N2CCc3c(ncn3Cc3cnccc3C(F)(F)F)C2)c1Cl | 1000 to 5000 nM | 0.01 to 1000 nM
5 | Cc1nc2c(n1Cc1ccccc1C(F)(F)F)CCN(c1cn[nH]c(=O)c1Cl)C2 | 0.01 to 1000 nM | 0.01 to 1000 nM
6 | O=c1[nH]ncc(N2CCc3c(nnn3C3CCCCC3)C2)c1Cl | 5000 to 10000 nM | 10000 to 500000 nM
7 | N#Cc1c(N2CCc3c(nnn3Cc3ccccc3C(F)F)C2)cn[nH]c1=O | 1000 to 5000 nM | 10000 to 500000 nM
8 | O=c1[nH]ncc(N2CCc3c(ncn3Cc3cccnc3OC(F)(F)F)C2)c1Cl | 0.01 to 1000 nM | 0.01 to 1000 nM
9 | O=c1[nH]ncc(N2CCc3c(nnn3Cc3ccccc3C(F)(F)F)C2)c1Br | 1000 to 5000 nM | 0.01 to 1000 nM
10 | Cc1ccccc1Cn1cnc2c1CCN(c1cn[nH]c(=O)c1Cl)C2 [drawing 840] | 0.01 to 1000 nM | 0.01 to 1000 nM
11 | C[C@H](c1ccccc1)n1cnc2c1CCN(c1cn[nH]c(=O)c1Cl)C2 [drawing 842] | 1000 to 5000 nM | 0.01 to 1000 nM
12 | O=c1[nH]ncc(N2CCc3ncn(-c4ccccc4C(F)(F)F)c3C2)c1Cl [drawing 847] | 5000 to 10000 nM | 10000 to 500000 nM
13 | O=c1[nH]ncc(N2CCc3c(nnn3Cc3ccccc3C(F)(F)F)C2)c1Cl [drawing 859] | 0.01 to 1000 nM | 0.01 to 1000 nM
14 | O=c1[nH]ncc(N2CCc3c(ncn3-c3cccc(C(F)(F)F)c3)C2)c1Cl | 1000 to 5000 nM | 0.01 to 1000 nM
15 | O=c1[nH]ncc(N2CCc3c(ncn3-c3ccccc3C(F)(F)F)C2)c1Cl [drawing 871] | 0.01 to 1000 nM | 0.01 to 1000 nM
16 | CCc1cccnc1Cn1cnc2c1CCN(c1cn[nH]c(=O)c1Cl)C2 | 1000 to 5000 nM | 0.01 to 1000 nM
17 | N#Cc1c(N2CCc3c(ncn3Cc3ccccc3C(F)F)C2)cn[nH]c1=O | 1000 to 5000 nM | 0.01 to 1000 nM
18 | CCc1cccnc1Cn1cnc2c1CN(c1cn[nH]c(=O)c1Cl)CC2 |  | 5000 to 10000 nM
19 | Cc1ncccc1Cn1cnc2c1CCN(c1cn[nH]c(=O)c1Cl)C2 | 1000 to 5000 nM | 1000 to 5000 nM
20 | O=c1[nH]ncc(N2CCc3c(cnn3Cc3cccnc3CC(F)(F)F)C2)c1Cl |  | 1000 to 5000 nM
21 | O=c1[nH]ncc(N2CCc3c(cnn3-c3ccccc3C(F)(F)F)C2)c1Cl |  | 1000 to 5000 nM
22 | O=c1[nH]ncc(N2CCc3c(ncn3Cc3ccc(C(F)(F)F)cc3)C2)c1C1CC1 | 10000 to 500000 nM | 10000 to 500000 nM

Row | SMILES | IC50 (TRPC5 [1]) | IC50 (TRPC5 [2])
23 | Cc1ccccc1-n1cc2c(n1)CCN(c1cn[nH]c(=O)c1Cl)C2 | 10000 to 500000 nM | 1000 to 5000 nM
24 | O=c1[nH]ncc(N2CCc3ncn(-c4ccccc4C(F)(F)F)c3C2)c1Cl [drawing 869] |  | 1000 to 5000 nM
25 | N#Cc1ccccc1-n1cnc2c1CN(c1cn[nH]c(=O)c1C#N)CC2 [drawing 898] |  | 1000 to 5000 nM
26 | CC[C@H](c1cccnc1)n1nnc2c1CCN(c1cn[nH]c(=O)c1Cl)C2 |  | 1000 to 5000 nM
27 | O=c1[nH]ncc(N2CCc3c(cnn3Cc3ccc(F)cc3C(F)(F)F)C2)c1Cl [drawing 864] | 0.01 to 1000 nM | 0.01 to 1000 nM
28 | O=c1[nH]ncc(N2CCc3c(ncn3Cc3ccc(F)cc3C(F)(F)F)C2)c1Cl [drawing 844] | 0.01 to 1000 nM | 0.01 to 1000 nM
29 | O=c1[nH]ncc(N2CCc3c(nnn3Cc3cccnc3CC(F)(F)F)C2)c1Cl |  | 0.01 to 1000 nM
30 | O=c1[nH]ncc(N2CCc3c(ncn3C3CCCCC3)C2)c1Cl | 5000 to 10000 nM | 10000 to 500000 nM
31 | O=c1[nH]ncc(N2CCc3c(ncn3Cc3cccnc3C(F)(F)F)C2)c1Cl | 1000 to 5000 nM | 1000 to 5000 nM
32 | O=c1[nH]ncc(N2CCc3nn(-c4ccccc4OC(F)(F)F)cc3C2)c1Cl |  | 1000 to 5000 nM
33 | O=c1[nH]ncc(N2CCc3c(nnn3Cc3ccccc3C(F)F)C2)c1Cl | 0.01 to 1000 nM | 0.01 to 1000 nM
34 | O=c1[nH]ncc(N2CCc3c(cnn3Cc3ccccc3C(F)(F)F)C2)c1Cl | 0.01 to 1000 nM | 0.01 to 1000 nM
35 | O=c1[nH]ncc(N2CCc3c(nnn3Cc3ccccc3OC(F)F)C2)c1Cl |  | 0.01 to 1000 nM
36 | C[C@H](c1ccccc1C(F)(F)F)n1nnc2c1CCN(c1cn[nH]c(=O)c1Cl)C2 |  | 0.01 to 1000 nM
37 | O=c1[nH]ncc(N2CCc3c(ncn3Cc3ncccc3C(F)(F)F)C2)c1Cl | 1000 to 5000 nM | 0.01 to 1000 nM
38 | O=c1[nH]ncc(N2CCc3c(ncn3Cc3ccc(F)nc3C(F)(F)F)C2)c1Cl | 0.01 to 1000 nM | 1000 to 5000 nM
39 | N#Cc1c(N2CCc3c(nnn3Cc3ccc(F)cc3C(F)(F)F)C2)cn[nH]c1=O | 1000 to 5000 nM | 10000 to 500000 nM
40 | O=c1[nH]ncc(N2CCc3ncn(Cc4cnccc4C(F)(F)F)c3C2)c1Cl |  | 10000 to 500000 nM
41 | CCc1ncccc1Cn1cnc2c1CCN(c1cn[nH]c(=O)c1Cl)C2 | 0.01 to 1000 nM | 0.01 to 1000 nM
42 | O=c1[nH]ncc(N2CCc3c(ncn3Cc3ccccc3)C2)c1Cl [drawing 880] | 1000 to 5000 nM | 0.01 to 1000 nM
43 | N#Cc1c(N2CCc3c(ncn3Cc3ccccc3C(F)(F)F)C2)cn[nH]c1=O [drawing 873] | 0.01 to 1000 nM | 0.01 to 1000 nM
44 | Cc1nc2c(n1Cc1ccccc1C(F)(F)F)CCN(c1c(Cl)cn[nH]c1=O)C2 |  | 10000 to 500000 nM

Row | SMILES | IC50 (TRPC5 [1]) | IC50 (TRPC5 [2])
45 | O=c1[nH]ncc(N2CCc3c(cnn3-c3ccccc3OC(F)(F)F)C2)c1Cl | 1000 to 5000 nM | 0.01 to 1000 nM
46 | N#Cc1c(N2CCc3ncn(Cc4ccccc4C(F)F)c3C2)cn[nH]c1=O |  | 0.01 to 1000 nM
47 | O=c1[nH]ncc(N2CCc3nn(-c4ccccc4C(F)(F)F)cc3C2)c1Cl | 10000 to 500000 nM | 0.01 to 1000 nM
48 | O=c1[nH]ncc(N2CCc3c(nnn3Cc3ccc(F)cc3C(F)(F)F)C2)c1Cl | 0.01 to 1000 nM | 0.01 to 1000 nM
49 | N#Cc1c(N2CCc3ncn(Cc4cncc(F)c4)c3C2)cn[nH]c1=O |  | 1000 to 5000 nM
50 | O=c1[nH]ncc(N2CCc3c(ncn3Cc3ccccc3C(F)(F)F)C2)c1Cl [drawing 850] | 0.01 to 1000 nM | 0.01 to 1000 nM
51 | CC(c1ccccc1C(F)(F)F)n1nnc2c1CCN(c1cn[nH]c(=O)c1C#N)C2 (centres unmarked) |  | 5000 to 10000 nM
52 | O=c1[nH]ncc(N2CCc3ncn(Cc4ccc(C(F)(F)F)cc4)c3C2)c1Cl | 10000 to 500000 nM | 1000 to 5000 nM
53 | CCOc1cccc(Cn2cnc3c2CCN(c2cn[nH]c(=O)c2Cl)C3)n1 |  | 1000 to 5000 nM
54 | O=c1[nH]ncc(N2CCc3c(nnn3Cc3ccc(F)cc3C(F)F)C2)c1Cl |  | 0.01 to 1000 nM
55 | O=c1[nH]ncc(N2CCc3c(ncn3Cc3ccccc3C(F)(F)F)C2)c1Br [drawing 838] | 1000 to 5000 nM | 0.01 to 1000 nM
56 | CC[C@@H](c1cncc(F)c1)n1cnc2c1CCN(c1cn[nH]c(=O)c1Cl)C2 | 5000 to 10000 nM | 0.01 to 1000 nM
57 | Cc1ccccc1-n1ncc2c1CCN(c1cn[nH]c(=O)c1Cl)C2 | 0.01 to 1000 nM | 0.01 to 1000 nM
58 | O=c1[nH]ncc(N2CCc3c(ncn3Cc3ccc(F)cc3C(F)F)C2)c1Cl [drawing 892] | 0.01 to 1000 nM | 0.01 to 1000 nM
59 | N#Cc1c(N2CCc3c(ncn3Cc3cncc(F)c3)C2)cn[nH]c1=O |  | 0.01 to 1000 nM
60 | O=c1[nH]ncc(N2CCc3c(cnn3Cc3ccc(F)cc3C(F)(F)F)C2)c1Cl [drawing 907] |  | 0.01 to 1000 nM
61 | Cc1cccc(C)c1Cn1cnc2c1CCN(c1cn[nH]c(=O)c1Cl)C2 |  | 0.01 to 1000 nM
62 | O=c1[nH]ncc(N2CCc3c(ncn3Cc3ccc(C(F)(F)F)nc3)C2)c1Cl | 10000 to 500000 nM | 10000 to 500000 nM
63 | O=c1[nH]ncc(N2CCc3c(ncn3Cc3ccncc3C(F)(F)F)C2)c1Cl | 1000 to 5000 nM | 0.01 to 1000 nM
64 | O=c1[nH]ncc(N2CCc3c(ncn3Cc3ccccc3C(F)(F)F)C2)c1C1CC1 | 5000 to 10000 nM | 5000 to 10000 nM
65 | N#Cc1ccccc1-n1cnc2c1CN(c1cn[nH]c(=O)c1C#N)CC2 [drawing 841] | 1000 to 5000 nM | 0.01 to 1000 nM
